In patent US20120252721A1 (priority 2011, published 2012):

Columns and labels:
[1] = system: HCV Con1 subgenomic replicon (GS4.1 cells); test: HCV replicon assay (NS5A ELISA, 72 hrs); assay type: cell-based; details: Hepatitis C virus
Outline: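 GS4.1 cells (Huh-7 carrying the Con1 subgenomic replicon) were seeded at 7.5×10^3 cells/well and dosed 3 h later with ten 2-fold dilutions (top 75 μM) or a single 15 μM in 0.5% DMSO, then held 72 h at 37 °C. NS5A was quantified by cell ELISA (mAb A-236, OPD, A492), and EC50s came from four-parameter sigmoidal fits.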

HCV genotype 5a = test: Replicon assay, genotype 5a (method not described); assay type: cell-based; details: Hepatitis C virus
[2] = system: 1a-luc M28T (HCV genotype 1a replicon); test: Luciferase replicon transient transfection assay, 1a-luc M28T; assay type: cell-based, hepatitis C virus; details: for EC50: Hepatitis C virus, 96 h, Huh7.5 cells, 4 days
Protocol: (§1) The luciferase replicon transient transfection assay measures the ability of a test compound to inhibit the replication of a transiently-transfected HCV luciferase-bearing wild-type or mutant replicon in cured human hepatoma cells (Huh7.5). The inhibition of HCV replication was measured by quantification of luciferase protein expression. This assay has been validated using a panel of genotype 1a and 1b replicons bearing mutations known to be associated with resistance to BMS-790052. Briefly, subconfluent Huh7.5 cells were electroporated with 10 μg of wild-type or mutant luciferase-bearing HCV replicon RNA. The cells were then seeded in 96-well opaque white plates at 3×10^4 cells/well in 150 μL/well and incubated for 4 hrs at 37° C./5% CO2. Ten 1:5 serial dilutions of each test compound were made in media (DMEM containing glucose, L-glutamine and sodium pyruvate, 10% fetal bovine serum, 100 IU/mL penicillin, 100 μg/mL streptomycin, 2 mM GlutaMAX, and 1×MEM non-essential amino acids (Mediatech, Inc. and Invitrogen Corp.)) at concentrations that were 4× higher than the final concentrations to be tested and 50 μL/well was added to the transfected cells. Untreated, mock-transfected cells served as a negative control of luciferase expression. The plates were incubated at 37° C./5% CO2 for 4 days whereupon the media was removed and 50 μL of ONE-glo luciferase substrate (Promega) was added to each well. The plates were agitated on a rotating platform at room temperature for 3 min and read in a Victor^3V microplate reader (Perkin-Elmer) using a 700 nm cut-off filter with a 1 sec read time. EC50 values were calculated from dose response curves from the resulting best-fit equations determined by Microsoft Excel and XLfit 4.1 software.

[3] = system: 1a-luc Q30R (HCV genotype 1a replicon); test: Luciferase replicon transient transfection assay, 1a-luc Q30R; assay type: cell-based, hepatitis C virus; details: for EC50: Hepatitis C virus, 96 h, Huh7.5 cells, 4 days
Protocol: as §1

[4] = system: 1a-luc L31F (HCV genotype 1a replicon); test: Luciferase replicon transient transfection assay, 1a-luc L31F; assay type: cell-based, hepatitis C virus; details: for EC50: Hepatitis C virus, 96 h, Huh7.5 cells, 4 days
Protocol: as §1

[5] = system: 1a-luc L31V (HCV genotype 1a replicon); test: Luciferase replicon transient transfection assay, 1a-luc L31V; assay type: cell-based, hepatitis C virus; details: for EC50: Hepatitis C virus, 96 h, Huh7.5 cells, 4 days
Protocol: as §1

[6] = system: 1a-luc P32L (HCV genotype 1a replicon); test: Luciferase replicon transient transfection assay, 1a-luc P32L; assay type: cell-based, hepatitis C virus; details: for EC50: Hepatitis C virus, 96 h, Huh7.5 cells, 4 days
Protocol: as §1

[7] = system: HCV genotype 1a replicon, NS3 T260A; test: Luciferase replicon transient transfection assay, genotype 1a NS3 T260A; assay type: cell-based, hepatitis C virus; details: for EC50: Hepatitis C virus, genotype 1a, HCV region NS3, mutation T260A
Protocol: as §1
(§2) To determine the replication capacity of each mutant relative to the wild-type parental replicon, transfected cells were plated on two plates and were not treated with compound. Luciferase activity was measured at time points of 4 hrs and 4 days after plating for each replicon. Replication capacity was calculated by dividing the day 4 CPS by the 4 hour CPS for each replicon and determining the percentage present for each mutant replicon relative to wild-type replicon values. The NS3, NS4B, and NS5B mutants were prepared and tested according to the methods described herein.

[8] = system: HCV genotype 1a replicon, NS5A K24E; test: Luciferase replicon transient transfection assay, genotype 1a NS5A K24E; assay type: cell-based, hepatitis C virus; details: for EC50: Hepatitis C virus, genotype 1a, HCV region NS5A, mutation K24E
Protocol: as §1

[9] = system: HCV genotype 1a replicon, NS5A E295G; test: Luciferase replicon transient transfection assay, genotype 1a NS5A E295G; assay type: cell-based, hepatitis C virus; details: for EC50: Hepatitis C virus, genotype 1a, HCV region NS5A, mutation E295G
Protocol: as §1

[10] = system: ZS11-luc L28T (HCV genotype 1b replicon); test: Luciferase replicon transient transfection assay, ZS11-luc L28T; assay type: cell-based, hepatitis C virus; details: for EC50: Hepatitis C virus, 96 h, Huh7.5 cells, 4 days
Protocol: as §1

[11] = system: ZS11-luc L31F (HCV genotype 1b replicon); test: Luciferase replicon transient transfection assay, ZS11-luc L31F; assay type: cell-based, hepatitis C virus; details: for EC50: Hepatitis C virus, 96 h, Huh7.5 cells, 4 days
Protocol: as §1

[12] = system: ZS11-luc P32L (HCV genotype 1b replicon); test: Luciferase replicon transient transfection assay, ZS11-luc P32L; assay type: cell-based, hepatitis C virus; details: for EC50: Hepatitis C virus, 96 h, Huh7.5 cells, 4 days
Protocol: as §1

[13] = system: ZS11-luc Y93N (HCV genotype 1b replicon); test: Luciferase replicon transient transfection assay, ZS11-luc Y93N; assay type: cell-based, hepatitis C virus; details: for EC50: Hepatitis C virus, 96 h, Huh7.5 cells, 4 days
Protocol: as §1

[14] = system: ZS11-luc replicon, NS3-A156T; test: Luciferase replicon transient transfection assay, NS3-A156T; assay type: cell-based, hepatitis C virus; details: for EC50: Hepatitis C virus
Protocol: as §1, §2

Compound: COC(=O)N[C@H](C(=O)N1CCC[C@H]1c1ncc(-c2ccc(-c3csc4c(-c5cnc([C@@H]6CCCN6C(=O)[C@@H](NC(=O)OC)C(C)C)[nH]5)csc34)cc2)[nH]1)C(C)C [Compound A15, [(S)-1-((S)-2-{4-[4-(6-{2-[(S)-1-((S)-2-methoxycarbonylamino-3-methyl-butyryl)-pyrrolidin-2-yl]-3H-imidazol-4-yl}-thieno[3,2-b]thiophen-3-yl)-phenyl]-1H-imidazol-2-yl}-pyrrolidine-1-carbonyl)-2-methyl-propyl]-carbamic acid methyl ester]
- EC50 [1]: < 1 nM

Compound: COC(=O)N[C@H](C(=O)N1CCC[C@H]1c1ncc(-c2ccc(-c3csc4c(-c5ccc6[nH]c([C@@H]7CCCN7C(=O)[C@H](NC(=O)OC)c7ccccc7)nc6c5)csc34)cc2)[nH]1)C(C)C [Compound A172, [(S)-1-((S)-2-{5-[4-(6-{(S)-2-[1-((R)-2-Methoxycarbonylamino-2-phenyl-acetyl)-pyrrolidin-2-yl]-3H-benzoimidazol-5-yl}-thieno[3,2-b]thiophen-3-yl)-phenyl]-1H-imidazol-2-yl}-pyrrolidine-1-carbonyl)-2-methyl-propyl]-carbamic acid methyl ester]
- EC50 (HCV genotype 5a): < 0.1 nM
- Ratio [2]: 174
- EC50 [2]: 0.7 nM
- Ratio [3]: 10
- EC50 [3]: 0.04 nM
- Ratio [4]: 67
- EC50 [4]: 0.3 nM
- Ratio [5]: 695
- EC50 [5]: 3 nM
- Ratio [6]: 173
- EC50 [6]: 0.7 nM
- EC50 [7]: 0.006 nM
- Ratio [7]: 1.61
- EC50 [8]: 0.006 nM
- Ratio [8]: 1.64
- EC50 [9]: 0.006 nM
- Ratio [9]: 1.67
- Ratio [10]: 63
- EC50 [10]: 0.2 nM
- Ratio [11]: 4
- EC50 [11]: 0.02 nM
- Ratio [12]: 6
- EC50 [12]: 0.03 nM
- Ratio [13]: 65
- EC50 [13]: 0.3 nM
- EC50 [14]: 0.0026 nM
- Ratio [14]: 1.14

Compound: COC(=O)N[C@H](C(=O)N1CCC[C@H]1c1nc2cc(-c3csc4c(-c5ccc(-c6cnc([C@@H]7CCCN7C(=O)[C@H](NC(=O)OC)c7ccccc7)[nH]6)cc5)csc34)ccc2[nH]1)C(C)C [Compound A169, [(S)-1-((S)-2-{6-[6-(4-{(S)-2-[1-((R)-2-methoxycarbonylamino-2-phenyl-acetyl)-pyrrolidin-2-yl]-3H-imidazol-4-yl}-phenyl)-thieno[3,2-b]thiophen-3-yl]-1H-benzoimidazol-2-yl}-pyrrolidine-1-carbonyl)-2-methyl-propyl]-carbamic acid methyl ester]
- EC50 (HCV genotype 5a): < 0.1 nM
- Ratio [2]: 155
- EC50 [2]: 0.3 nM
- Ratio [3]: 10
- EC50 [3]: 0.02 nM
- Ratio [4]: 68
- EC50 [4]: 0.15 nM
- Ratio [5]: 425
- EC50 [5]: 0.9 nM
- Ratio [6]: 173
- EC50 [6]: 0.4 nM
- EC50 [7]: 0.003 nM
- Ratio [7]: 1.57
- EC50 [8]: 0.004 nM
- Ratio [8]: 1.83
- EC50 [9]: 0.004 nM
- Ratio [9]: 1.62
- Ratio [10]: 73
- EC50 [10]: 0.2 nM
- Ratio [11]: 4
- EC50 [11]: 0.01 nM
- Ratio [12]: 8
- EC50 [12]: 0.02 nM
- Ratio [13]: 146
- EC50 [13]: 0.4 nM
- EC50 [14]: 0.0018 nM
- Ratio [14]: 1.09

Compound: COC(=O)N[C@H](C(=O)N1CCC[C@H]1c1ncc(-c2ccc(-c3csc4c(-c5cnc([C@@H]6CCCN6C(=O)[C@H](NC(=O)OC(C)(C)C)c6ccccc6)[nH]5)csc34)cc2)[nH]1)C(C)C [Compound A111, [(S)-1-((S)-2-{4-[4-(6-{(S)-2-[1-((R)-2-tert-butoxycarbonylamino-2-phenyl-acetyl)-pyrrolidin-2-yl]-3H-imidazol-4-yl}-thieno[3,2-b]thiophen-3-yl)-phenyl]-1H-imidazol-2-yl}-pyrrolidine-1-carbonyl)-2-methyl-propyl]-carbamic acid methyl ester]
- EC50 [1]: < 1 nM
- Ratio [5]: 768
- EC50 [5]: 36 nM
- Ratio [11]: 8
- EC50 [11]: 0.01 nM
